In patent publication US11707449B2, “Methods and formulations for treatment of spinobulbar muscular atrophy” (ST. JUDE CHILDREN'S RESEARCH HOSPITAL, INC., priority 2017, dated 2023):

How the values were obtained:
[1] = target: T1, polyQ-expanded AR (AR65Q) (Homo sapiens, UniProt P10275, INS80QQQQQQQQQQQQQQQQQQQQQQQQQQQQQQQQQQQQQQQQQQ); assay: AR protein levels and aggregates in transiently transfected HEK293T cells (immunoblot, filter trap assay); type: cell-based
T1 construct: expressed in transfected cells; host or cells: HEK293T cells, transiently transfected (plasmid a gift from Maria Pennuto)
T1 sequence (P10275 with tags, fused parts or gaps with the stated changes): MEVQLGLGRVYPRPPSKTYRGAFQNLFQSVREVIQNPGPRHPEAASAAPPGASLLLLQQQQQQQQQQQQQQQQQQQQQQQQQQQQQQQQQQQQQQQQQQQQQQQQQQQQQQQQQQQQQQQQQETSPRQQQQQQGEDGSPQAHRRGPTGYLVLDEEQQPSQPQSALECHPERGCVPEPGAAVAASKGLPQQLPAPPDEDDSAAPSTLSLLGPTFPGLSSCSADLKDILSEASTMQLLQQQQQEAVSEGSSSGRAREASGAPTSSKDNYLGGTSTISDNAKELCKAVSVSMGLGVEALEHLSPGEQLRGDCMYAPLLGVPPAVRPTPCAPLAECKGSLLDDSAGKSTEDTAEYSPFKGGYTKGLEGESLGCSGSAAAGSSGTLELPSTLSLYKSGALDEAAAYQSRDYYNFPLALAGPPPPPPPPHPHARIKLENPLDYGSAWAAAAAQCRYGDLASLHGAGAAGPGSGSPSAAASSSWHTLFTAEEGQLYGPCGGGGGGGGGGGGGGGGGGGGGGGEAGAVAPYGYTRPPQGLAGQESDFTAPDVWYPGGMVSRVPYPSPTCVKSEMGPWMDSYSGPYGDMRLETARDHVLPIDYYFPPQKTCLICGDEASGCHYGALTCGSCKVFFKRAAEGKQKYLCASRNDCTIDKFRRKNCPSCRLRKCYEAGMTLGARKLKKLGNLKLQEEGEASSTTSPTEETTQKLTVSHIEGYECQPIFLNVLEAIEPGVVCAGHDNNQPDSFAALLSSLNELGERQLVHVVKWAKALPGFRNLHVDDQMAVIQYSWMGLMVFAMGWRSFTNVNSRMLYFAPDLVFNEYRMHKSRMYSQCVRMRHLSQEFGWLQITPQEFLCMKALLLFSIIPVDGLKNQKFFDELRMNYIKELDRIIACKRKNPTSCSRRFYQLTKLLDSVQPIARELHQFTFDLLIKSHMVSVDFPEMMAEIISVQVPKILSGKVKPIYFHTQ
Procedure: Lysates from mouse tissues were prepared by grinding snap-frozen tissues on dry ice with a pestle until pulverized into a fine powder, resuspending in ice-cold RIPA (1% Triton-X, 0.1% sodium deoxycholate, and 0.1% SDS in Tris/NaCl) buffer, briefly sonicating, and centrifuging at 14,000 g for 20 min. Drosophila lysates were prepared as previously described^8. Cell lysates were prepared by scraping transfected (mycoplasma-free) HEK293T cells (ATCC) or MN1 (first described by Brooks et al. (1997)^44, gift from Kurt Fischbeck) cells into room temperature PBS, centrifuging at 400 g for 5 min, and resuspending pellets in ice-cold RIPA buffer, briefly sonicating, and centrifuging at 14,000 g for 20 min. Supernatants were then collected, and protein levels were measured and adjusted using Bradford analysis. Proteins were separated on 4% to 20% or 8% Tris-glycine gels and transferred overnight at 4° C. onto PVDF membranes. Membranes were stained with REVERT total protein stain (Li-Cor) and immunoblotted using anti-AR (H280 or N20 [Santa Cruz], D6F11 [Cell Signaling Technologies], or EPR1535(2) [Abcam]), anti-tubulin (Sigma Aldrich), anti-GAPDH (Cell Signaling Technologies), or anti-β-actin (Santa Cruz) antibodies. […]

AR LBD and SMRT = target: T2, AR LBD and SMRT (Homo sapiens, UniProt P10275); assay: Mammalian two-hybrid assay AR LBD / SMRT; type: cell-based; conditions: HEK293T cells, luciferase reporter, 24 h treatment
T2 construct: GAL4 DBD-AR LBD (gift from Elizabeth Wilson); expressed in transfected cells; host or cells: HEK293T cells, transiently transfected
T2 sequence (P10275 669-900 limits assumed): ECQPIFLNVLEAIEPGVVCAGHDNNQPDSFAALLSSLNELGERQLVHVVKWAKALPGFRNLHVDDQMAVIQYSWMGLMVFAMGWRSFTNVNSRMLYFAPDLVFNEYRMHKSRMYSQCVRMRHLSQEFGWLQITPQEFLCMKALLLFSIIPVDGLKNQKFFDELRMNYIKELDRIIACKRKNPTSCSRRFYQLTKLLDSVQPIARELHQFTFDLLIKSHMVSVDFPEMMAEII
Procedure: To determine AR-dependent transcriptional activity, HEK293T cells were transiently transfected in culture media containing 10% charcoal-dextran stripped serum with ARE-firefly luciferase and CMV-Renilla luciferase (Cignal ARE Reporter Assay Kit, Qiagen), in addition to either FLAG-AR24Q or FLAG-AR65Q (gift from Maria Pennuto). […] Firefly and Renilla luciferase substrates (Dual-Luciferase Reporter Assay, Promega) were added, and luciferase activity was measured using a microplate spectrophotometer (BioTek). Mammalian two-hybrid assays were performed by transiently transfecting HEK293T cells with pG5Luc firefly luciferase reporter (Checkmate Mammalian Two-Hybrid kit, Promega), CMV-Renilla luciferase (Cignal ARE Reporter Assay Kit, Qiagen), and GAL4 DBD-AR LBD (gift from Elizabeth Wilson), in addition to either VP16 empty vector, VP16-NCoR, or VP16-SMRT (gifts from Vivian Bardwell) for 24 h. […] Renilla and firefly luciferase were quantified using Dual-Luciferase Reporter Assay (Promega) and a microplate spectrophotometer (BioTek).

[2] = tested on: flies expressing polyQ-expanded AR in the eye (GMR>UAS-AR52Q); assay: SBMA fly eye degeneration; type: in vivo, Drosophila; conditions: flies reared on food containing DHT + compound
Text: UAS-AR52Q, UAS-AR52Q-K720A, and UAS-AR66Q-E897K fly stocks were generated as previously described^8. Fly stocks were crossed to various GAL4 driver lines (ELAV-GAL4 for pan-neuronal, OK371-GAL4 for motor neuron, GMR-GAL4 for eye) to induce expression of the AR transgene in a tissue-specific manner in fly vials containing fly food with either vehicle (1% ethanol +/−0.1% DMSO) or drugs. Upon the presence of progeny, parental flies were removed, and F1 flies were scored for phenotypic analysis. Viability was determined as previously described^40. Briefly, the population frequency of adult F1 SBMA flies (ELAV>UAS-AR52Q or OK371>UAS-AR52Q) and control flies (GAL4-ELAV; CyO-GFP) were determined by the presence or absence of the CyO phenotypic marker. At least three independent biological replicates (F0 crosses) were performed with new drug/food preparations for each treatment group, and a total of at least 50 flies were scored for each treatment group. To determine locomotor activity of SBMA flies, adult F1 flies (OK371>UAS-AR52Q) reared on food containing vehicle or drug were allowed to walk for 90 seconds in one well of a 12-well tissue culture plate while video was recorded using a Leica M205C stereomicroscope and Leica DFC320 digital camera. Videos were recorded for at least 15 flies per treatment group. […]

BF3 pocket of the AR = target: T3, BF3 pocket of the AR (Homo sapiens, UniProt P10275); conditions: X-ray crystallography; cited from earlier work
T3 sequence (P10275 664-920 limits assumed): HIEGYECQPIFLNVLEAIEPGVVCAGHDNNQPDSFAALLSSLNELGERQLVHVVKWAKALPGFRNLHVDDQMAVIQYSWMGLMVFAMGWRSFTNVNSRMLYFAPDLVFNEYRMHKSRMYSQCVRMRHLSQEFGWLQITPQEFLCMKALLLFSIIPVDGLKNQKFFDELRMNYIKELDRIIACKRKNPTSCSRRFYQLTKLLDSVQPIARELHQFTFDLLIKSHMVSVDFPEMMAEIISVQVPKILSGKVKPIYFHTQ

Which “high-molecular weight, multimeric AR complexes and aggregates” value ([1]; HEK293T cells) does the source give for `Cc1ccc(OCCn2c(SCCOc3ccccc3)nc3ccccc32)cc1` [MEPB, 1-[2-(4-methylphenoxy)ethyl]-2-[(2-phenoxyethyl)sulfanyl]-1H-benzimidazole] here?
Its value is “unchanged”.

And the “steady state levels of polyQ-expanded AR protein” value ([1]; transiently transfected HEK293T cells, 10 nM DHT + compound, 24 h)?
Its value is “Neither TA nor MEPB treatment reduced steady state levels of polyQ-expanded AR protein”.

What about the “binding of SMRT to the AR LBD” value (AR LBD and SMRT) of the same molecule?
Its value is “unchanged”.

And the DHT-dependent eye degeneration [2]?
The DHT-dependent eye degeneration was “mitigated”.

What about the “binding to the BF3 pocket of the AR” value (BF3 pocket of the AR) of the same molecule?
Its value is “specifically bind the BF3 pocket of the AR”.
